# Data reported in US5661182A, “Method for lowering oxygen affinity of hemoglobin in redcell suspensions, in whole blood and in vivo” (Virginia Commonwealth University, priority 1995, dated 1997).
# “Also recorded” adds a separate entry of the source.
# Experiments:
# [1] = target: hemoglobin in fresh human red blood cells (Homo sapiens, UniProt P68871+P69905); assay: Oxygen equilibrium curves of fresh human red cell suspensions (p50); type: cell-based; details: for potency in raising p50 / lowering the oxygen affinity: fresh human red cells, absence of albumin; for P50: effector 0.5 mM, pH 7.4, 37 °C; for inhibition of the allosteric effect by albumin: human red cells, 50 or 100 μM HSA
# Protocol: (§1) Human blood was collected on heparin from healthy nonsmoking donors. Bovine blood was provided by Pr Delpech, INA (Paris-Grignon). Red blood cells were washed three times in isotonic buffer, kept at 4° C., and used within 24 h after sampling. Hemoglobin Yakima, a high-oxygen-affinity variant [α2 β2 99 (G1) Asp>>His], was obtained from a known heterozygous carrier. Fresh Yakima red cells were processed in the same way as described above.
# (§2) L3,5 and L3,4,5 were provided by Dr. Lalezari (Montefiore Hospital, New York); RSR-4 [2-[4-[[(3,5-dichloroanilino)carbonyl]methyl]phenoxy]-2-methylpropionic acid]and RSR13 [2-4-[[(3,5- dimethylanilino)carbonyl]methyl]phenoxy]-2-methylpropionic acid] have been synthesized following the procedure described in Randad et al. (J. Med. Chem. 34,752 (1991)). Human serum albumin (HSA), bovine serum albumin (BSA) and 4,4'diisothiocyanatostilbene-2,2'-disulfonate (DIDS) were purchased from Sigma (St. Louis, Mo.). Due to their low solubility in aqueous buffer, 10 mM stock solutions of the compounds were prepared in a slight exccess of sodium bicarbonate and back-titrated to pH 7.4. For example, RSR-4 or RSR-13 was dissolved at 60° C. in a 140 mM NaCl and 50 mM bis-Tris buffer at room temperature upon progressive addition of NaHCO3 to obtain 10 mM stock solutions. The pH was carefully adjusted to 7.4 after complete solubilization and before use of the solutions. Fresh solutions were prepared each week. Stock solutions of DIDS (1 mM) were prepared, in the dark, on the day of the experiments in a pH 7.4 buffer. Human serum albumin (defatted HSA) and bovine serum albumin (BSA) were prepared freshly as 1 mM stock solutions, pH 7.4. Equilibrium Measurements. The allosteric modulation of the effectors on freshly prepared solutions of hemoglobin or red cell suspensions was measured by the change in p50, the partial pressure of oxygen for half-saturation. Oxygen equilibrium curves (OEC) were carried out with the Hemox analyzer (TCS, Southampton, Pa.) under the following conditions: pH 7.4, 140 mM NaCl and 50 mM bis-Tris buffer at 37° C. In all experiments, the concentration of hemoglobin in the red cell suspensions was 20-25 μM hemoglobin tetramer (Hb4) as measured by Drabkin's method (cyanomethemoglobin) at the end of each recording. The final concentration of the allosteric effector in the cuvette was 0.5 mM, resulting in an effector/Hb4 ratio of 20 in the absence of albumin. OEC were also made in the same buffer containing 12.5, 25, 50, and 100 μM HSA (for human red cell suspensions) or BSA (for bovine cell suspensions). The serum albumin experiments were carried out with traces of an antifoaming agent. This agent has no deleterious effect on the red cell suspensions. The molar ratio of albumin to tetrameric hemoglobin was varied from 0.5 (at 12.5 μM HSA) to 4 (at 100 μM HSA); in whole blood this ratio is approximately 0.3 (0.7 mM albumin plus plasma proteins/2.25 mM Hb4). Therefore, the concentration of albumin used in the present studies was always larger relative to tetrameric hemoglobin than that found in whole blood.
# Equilibrium oxygen binding curves were also recorded for red cell suspensions (10% hematocrit) that had been reacted for 30 min in the dark at 37° C. with 20 μM DIDS, a specific inhibitor of the red cell membrane anion channel. Kinetic Experiments. The kinetics of the interaction between the effectors and intracellular hemoglobin were measured in the absence and presence of varying concentrations of HSA. The red cell suspensions were equilibrated under room air (pO2 =140 mmHg) at 37° C. in the optical cuvette of the Hemox analyzer, which provides a constant stirring of the suspensions. […] Changes in absorbance were recorded and stored on tape for further analyses. […]
# hemoglobin = assay: Comparison of allosteric effector strength (right shift of oxygen equilibrium curve); type: biochemical; details: compounds of FIG. 1
# [2] = target: intracellular hemoglobin, human red cells (Homo sapiens, UniProt P68871+P69905); assay: Kinetics of interaction between effectors and intracellular hemoglobin (absorbance at 560 nm) in human red cell suspensions; type: cell-based; details: for ΔA560: effector 0.5 mM, room air
# Protocol: Equilibrium oxygen binding curves were also recorded for red cell suspensions (10% hematocrit) that had been reacted for 30 min in the dark at 37° C. with 20 μM DIDS, a specific inhibitor of the red cell membrane anion channel. Kinetic Experiments. The kinetics of the interaction between the effectors and intracellular hemoglobin were measured in the absence and presence of varying concentrations of HSA. The red cell suspensions were equilibrated under room air (pO2 =140 mmHg) at 37° C. in the optical cuvette of the Hemox analyzer, which provides a constant stirring of the suspensions. […] Changes in absorbance were recorded and stored on tape for further analyses.
# An increase in absorbance at 560 nm (εmax for deoxy-Hb in the visible spectrum) under room air indicates the formation of partially deoxygenated Hb in the red cells and a decreased oxygen affinity of Hb, provided that the pH is held constant.
# Examples of these kinetic recordings are illustrated in FIG. 4. Two indices were calculated from the experimental values: ΔA560 is the difference in optical density from the base line to the plateau and t1/2 is […]. […]
# [3] = target: hemoglobin in fresh bovine red blood cells (Bos taurus, UniProt P01966+P02070); assay: Oxygen binding of fresh bovine red blood cells (p50); type: cell-based; details: for RBC (p50): bovine RBC, effector 0.5 mM, pH 7.4, 37 °C
# Protocol: as §1, §2
# Bovine Red Cell Studies. Table 2 presents data for oxygen binding measurements for fresh bovine red blood cells and isolated Hb solutions on addition of the effectors L3,5, RSR-4, and RSR-13. The experimental conditions used were the same as described in conjunction with Table 1 for human red blood cells. The oxygen equilibrium curves for Hb solutions were made at pH 7.2, 100 mM NaCl and 50 mM bis-Tris buffer at 25° C. Catalase (20 μg/mL) and 50 μM EDTA were added to oppose oxidation of the hemes. The concentration of the effectors was 0.5 mM in all conditions. In Table 2, BSA is bovine serum albumin and P50 (mmHg) is the pO2 for 50% saturation.
# [4] = human RBC suspension, 50 μM HSA
# [5] = human RBC suspension, 100 μM HSA
# [6] = time for half-ΔA560, effector 0.5 mM, 50 μM HSA, 37 °C
# [7] = time for half-ΔA560, effector 0.5 mM, 100 μM HSA, 37 °C
# [8] = time for half-ΔA560, effector 0.5 mM, no HSA, 37 °C
# [9] = human RBC pre-incubated 30 min with DIDS, no HSA
# [10] = time for half-ΔA560, effector 0.5 mM, 12.5 μM HSA, 37 °C
# hemoglobin in fresh human red blood cells, sequence (P69905 whole entry): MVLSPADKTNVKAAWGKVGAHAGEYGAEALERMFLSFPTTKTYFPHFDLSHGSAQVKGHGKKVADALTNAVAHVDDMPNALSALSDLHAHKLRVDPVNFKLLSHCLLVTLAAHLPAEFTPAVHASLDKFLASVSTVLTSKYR
# hemoglobin in fresh human red blood cells, sequence (P68871 whole entry): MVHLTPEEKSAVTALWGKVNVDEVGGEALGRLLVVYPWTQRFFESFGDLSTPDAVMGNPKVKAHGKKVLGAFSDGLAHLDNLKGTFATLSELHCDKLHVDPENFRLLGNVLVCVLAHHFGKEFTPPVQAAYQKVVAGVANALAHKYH
# intracellular hemoglobin, human red cells, sequence (P69905 whole entry): as the sequence (P69905 whole entry) above
# intracellular hemoglobin, human red cells, sequence (P68871 whole entry): as the sequence (P68871 whole entry) above
# hemoglobin in fresh bovine red blood cells, sequence (P01966 whole entry): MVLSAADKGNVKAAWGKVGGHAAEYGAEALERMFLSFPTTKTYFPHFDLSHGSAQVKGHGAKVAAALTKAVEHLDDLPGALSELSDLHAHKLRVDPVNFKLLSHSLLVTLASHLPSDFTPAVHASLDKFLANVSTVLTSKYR
# hemoglobin in fresh bovine red blood cells, sequence (P02070 whole entry): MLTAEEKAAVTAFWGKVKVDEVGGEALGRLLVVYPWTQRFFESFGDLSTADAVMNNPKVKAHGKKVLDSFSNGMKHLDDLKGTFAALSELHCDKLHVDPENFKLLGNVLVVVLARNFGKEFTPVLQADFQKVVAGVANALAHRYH
SMILES,potency in raising p50 / lowering the oxygen affinity [1],"P50 [1, 4] [mm Hg]","P50 [1, 5] [mm Hg]","P50 ([1]; human RBC suspension, no HSA) [mm Hg]",inhibition of the allosteric effect by albumin [1],allosteric effector strength (hemoglobin),"ΔA560 ([2]; 50 μM HSA, 37 °C)","ΔA560 ([2]; 100 μM HSA, 37 °C)","ΔA560 ([2]; no HSA, 37 °C)",t1/2 ([2]; in the absence of albumin),"t1/2 [2, 6] [min]","t1/2 [2, 7] [min]","t1/2 [2, 8] [min]",RBC (p50) ([3]; no BSA) [mmHg],order of potency in lowering the oxygen affinity ([3]; bovine red cells),"p50 shift relative to control at 500 µM ([3]; bovine red cells, 0.5 mM) [%]","P50 [1, 9] [mm Hg]","ΔA560 ([2]; 12.5 μM HSA, 37 °C)","t1/2 [2, 10] [min]",further results
Cc1cc(C)cc(NC(=O)Cc2ccc(OC(C)(C)C(=O)O)cc2)c1 [RSR-13],"weakest in reducing the oxygen affinity of Hb, relative to L3,5 or RSR-4; also recorded: L3,5≈RSR-4>RSR-13",34.0,32.6,37.8,"much less affected by serum albumin, and its effect persists even in the presence of 100 1-M HSA","L3,5≈RSR-4>RSR-13",0.082,0.067,0.085,over 2 min,2.3,2.08,2.32,31,"RSR-4>>L3,5>RSR-13",15,–,–,–,change in t1/2 upon addition of albumin ([2]; HSA added): No change
"CC(C)(Oc1ccc(NC(=O)Nc2cc(Cl)cc(Cl)c2)cc1)C(=O)O [L3,5, reference compound]","comparable; also recorded: almost equally potent effectors; also recorded: L3,5≈RSR-4>RSR-13",32,28,60,–,"L3,5≈RSR-4>RSR-13; also recorded: much stronger allosteric effect",0.058,0.029,0.181,–,1.83,1.92,0.55,35,"RSR-4>>L3,5>RSR-13",30,54,0.124,1.54,–
"CC(C)(Oc1ccc(CC(=O)Nc2cc(Cl)cc(Cl)c2)cc1)C(=O)O [RSR-4, 2-[4-[[(3,5-dichloroanilino)carbonyl]methyl]phenoxy]-2-methylpropionic acid]","comparable; also recorded: almost equally potent effectors; also recorded: L3,5≈RSR-4>RSR-13",44.0,36,52.5,"less inhibited by albumin than the closely related compound L3,5; also recorded: much lower inhibition of RSR-4 by serum albumin than that observed with L3,5; also recorded: much less inhibited by 50 or 100 μM albumin than observed with L3,5","L3,5≈RSR-4>RSR-13",0.086,0.042,0.152,1 min,1.27,1.45,1,54,"RSR-4>>L3,5>RSR-13",–,49,0.107,1.53,"P50 ([1]; human RBC suspension, 12.5 μM HSA): 48.5 mm Hg; RBC (p50) ([3]; 50 μM BSA): 45 mmHg; effect on control p50 ([3]; bovine red cells, 0.5 mM, without and with 50 μM BSA): doubling of the control p50 and persists even in the presence of 50 μM BSA"
